Our source for the Ki values is patent US20200339548A1, “PYRIMIDINE DERIVATIVES AND THEIR USE FOR THE TREATMENT OF CANCER” (Adorx Therapeutics Limited, priority 2017, published 2020).

For orientation: Ki means the dissociation constant of the complex between target and ligand, obtained from inhibition or displacement.

Where two headings read alike, the source gives them in different places.

For experiment [1], the target named is T1, Adenosine A2a receptor (Homo sapiens, UniProt P29274).
T1 construct: expressed in transfected cells; host or cells: CHO cell membranes
Nature of the experiment: Adenosine receptor TR-FRET binding assay, A2a. The following applies: displacement of 100 nM CA200645, CHO cell membranes. In short, it runs like this:
(§1)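 Competition TR-FRET binding in CHO cell membranes expressing terbium-labelled human receptors, displacing fluorescent XAC (CA200645; 30 nM for A2b, 100 nM for A1, A2a, A3); 2 h at room temperature with saponin buffer, 1% DMSO. 665/620 nm ratio; non-specific with 10 μM XAC; Ki by Cheng–Prusoff from IC50.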
On the technique in general: Time-resolved FRET reads energy transfer from a long-lived donor to a nearby acceptor.

Experiment [2] deals with T2, Adenosine A2b receptor (Homo sapiens, UniProt P29275).
T2 construct: expressed in transfected cells; host or cells: CHO cell membranes
T2 sequence (P29275 1-332): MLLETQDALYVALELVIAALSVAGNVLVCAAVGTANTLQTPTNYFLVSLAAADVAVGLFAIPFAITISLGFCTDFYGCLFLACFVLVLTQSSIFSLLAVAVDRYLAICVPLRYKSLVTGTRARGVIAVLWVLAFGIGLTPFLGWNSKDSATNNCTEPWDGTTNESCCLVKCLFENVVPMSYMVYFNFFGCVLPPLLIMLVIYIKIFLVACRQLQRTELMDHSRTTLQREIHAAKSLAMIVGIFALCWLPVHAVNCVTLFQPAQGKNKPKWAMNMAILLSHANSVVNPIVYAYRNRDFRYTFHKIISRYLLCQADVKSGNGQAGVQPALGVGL
Nature of the experiment: Adenosine receptor TR-FRET binding assay, A2b. The conditions noted are these: Table 9, further testing; displacement of 30 nM CA200645, CHO cell membranes. Summed up:
as §1

For experiment [3], the target named is T3, Adenosine A3 receptor (Homo sapiens, UniProt P0DMS8).
T3 construct: expressed in transfected cells; host or cells: CHO cell membranes
T3 sequence (P0DMS8 1-318): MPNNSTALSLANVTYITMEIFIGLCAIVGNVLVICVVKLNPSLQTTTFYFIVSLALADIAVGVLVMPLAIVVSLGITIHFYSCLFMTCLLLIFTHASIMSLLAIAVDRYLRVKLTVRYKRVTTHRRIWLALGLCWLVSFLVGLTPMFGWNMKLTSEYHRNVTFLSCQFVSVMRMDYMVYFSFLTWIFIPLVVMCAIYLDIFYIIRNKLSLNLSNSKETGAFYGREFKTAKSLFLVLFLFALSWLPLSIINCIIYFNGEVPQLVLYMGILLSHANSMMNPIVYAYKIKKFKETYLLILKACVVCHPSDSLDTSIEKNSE
Nature of the experiment: Adenosine receptor TR-FRET binding assay, A3. The method, then: All FRET binding experiments were conducted at room temperature in white 384-well plates, in assay binding buffer containing 1× LabMed (Cisbio, France), 100 μg/mL saponin, 1% DMSO and 0.02% pluronic acid. Binding of the fluorescently labelled Adenosine receptor antagonist XAC (CA200645, FRET acceptor) to terbium-labelled A1, A2a, A2b and A3 adenosine receptors (FRET donors) was detected by time-resolved FRET due to the close proximity of the donor and acceptor in a binding event. To investigate the ability of unlabelled test compounds to bind to Adenosine A1, A2a, A2b and A3 receptors, dose response curves were constructed that determined the ability of a range of concentrations to inhibit the binding of 30 nM CA200645 to the A2b receptor and 100 nM CA200645 to the A1, A2a, and A3 receptor.
Serial dilution (1:3 dilutions) of test compounds in neat DMSO and transfer of a 400 nL sample of test compound into the assay plate was carried out using the Mosquito (TTP Labtech, UK). The compound samples were incubated for 2 hours at room temperature with a fixed concentration of CA200645 defined for each receptor (see above) and CHO cell membranes containing the human Adenosine A1 (0.5 μg/well), A2a (0.3 μg/well), A2b (1 μg/well) or A3 (1 μg/well) receptor in 40 μL of assay buffer. Total and non-specific binding of CA200645 was determined in the absence and presence of 10 μM XAC, respectively.
Following 2 hours incubation, the level of CA200645 binding was detected on a Pherastar FSX (BMG Labtech, Germany) using standard TR-FRET settings. The terbium donor was excited with three laser flashes at a wavelength of 337 nm, and donor and acceptor emission was detected at 620 nm and 665 nm wavelengths, respectively. FRET ratios were obtained by multiplying the acceptor/donor ratio value by 10,000. Specific binding was determined by subtracting the non-specific binding FRET ratio from the total binding FRET ratio. Compound IC50 curves were analysed using GraphPad Prism 7.0 (GraphPad, USA) and Ki affinity values were determined from the obtained […] values using the method of Cheng and Prusoff.

Experiment [4] deals with T4, Adenosine A1 receptor (Homo sapiens, UniProt P30542).
T4 construct: expressed in transfected cells; host or cells: CHO cell membranes
T4 sequence (P30542 1-326): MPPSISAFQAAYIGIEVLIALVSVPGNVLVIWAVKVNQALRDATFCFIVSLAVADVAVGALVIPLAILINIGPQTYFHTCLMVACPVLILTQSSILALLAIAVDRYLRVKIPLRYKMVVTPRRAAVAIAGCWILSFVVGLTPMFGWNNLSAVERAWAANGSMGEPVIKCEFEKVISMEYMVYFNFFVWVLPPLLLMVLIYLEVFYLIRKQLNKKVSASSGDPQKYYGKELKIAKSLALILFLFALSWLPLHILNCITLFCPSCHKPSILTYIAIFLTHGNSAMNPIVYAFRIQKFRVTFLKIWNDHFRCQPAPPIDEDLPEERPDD
In words: Adenosine receptor TR-FRET binding assay, A1. The conditions noted are these: Table 9, further testing; displacement of 100 nM CA200645, CHO cell membranes. Summed up: as §1

The mark [5] stands for this setting: Table 9, further testing, displacement of 100 nM CA200645, CHO cell membranes, read-out: A3 Ki.

T1 sequence (P29274 whole entry): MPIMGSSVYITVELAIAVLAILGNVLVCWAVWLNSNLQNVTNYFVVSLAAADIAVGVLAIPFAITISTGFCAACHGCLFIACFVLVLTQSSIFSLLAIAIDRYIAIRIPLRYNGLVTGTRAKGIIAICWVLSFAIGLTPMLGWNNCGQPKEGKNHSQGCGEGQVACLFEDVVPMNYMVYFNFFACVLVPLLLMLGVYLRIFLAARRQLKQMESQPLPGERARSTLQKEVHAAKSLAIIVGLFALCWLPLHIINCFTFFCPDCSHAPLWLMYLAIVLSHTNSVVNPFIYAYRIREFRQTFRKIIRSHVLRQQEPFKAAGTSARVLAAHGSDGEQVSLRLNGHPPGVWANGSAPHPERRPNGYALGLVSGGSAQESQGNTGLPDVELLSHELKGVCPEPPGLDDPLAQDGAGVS

On to `Cc1cccnc1CNC(=O)c1c(N)nc(-c2ccco2)nc1OCC(C)C` [Example 20.3, 4-Amino-2-(2-furyl)-6-isobutoxy-N-[(3-methyl-2-pyridyl)methyl]pyrimidine-5-carboxamide], for which the inhibitory constant (Ki) is 0.00047 µM in experiment [1] (Table 9, further testing); 0.174 µM in experiment [2]; 0.0017 µM in experiment [3] (setting [5]); 0.0041 µM in experiment [4].
In the case of `CC(=O)NCCOc1nc(-c2ccco2)nc(N)c1C(=O)NCc1ncccc1C` [Example 20, 4-(2-Acetamidoethoxy)-6-amino-2-(2-fury)-N-[(3-methyl-2-pyridyl)methyl]pyrimidine-5-carboxamide], the inhibition constant Ki in experiment [1] (Table 9, further testing) worked out at 0.0011 µM; in experiment [2], 0.508 µM; in experiment [3] (setting [5]) it was 0.83 µM; in experiment [4], 0.109 µM.
On to `COc1cc(CNC(=O)c2cnc(-c3ccco3)nc2N)cc(OC)c1` [Example 5.43, 4-Amino-N-[(3,5-dimethoxyphenyl)methyl]-2-(2-furyl)pyrimidine-5-carboxamide], for which the inhibitory constant (Ki) in experiment [1] (Table 9, further testing) came out at 0.058 µM; in experiment [2], 5.14 µM; in experiment [3] (setting [5]), 5.92 µM; in experiment [4] it was 4.78 µM.
For the compound `Cc1cccnc1CNC(=O)c1c(N)nc(-c2ccco2)nc1OCCO` [Example 20.1, 4-Amino-2-(2-furyl)-6-(2-hydroxyethoxy)-N-[(3-methyl-2-pyridyl)methyl]pyrimidine-5-carboxamide], the inhibition constant Ki in experiment [1] (Table 9, further testing) amounted to 0.00013 µM; in experiment [2] it was 0.107 µM; in experiment [3] (setting [5]), 0.086 µM; in experiment [4], 0.0054 µM.
The corresponding values for `Cc1cccnc1CNC(=O)c1c(N)nc(-c2ccco2)nc1OCCN` [Example 23.1, 4-Amino-6-(2-aminoethoxy)-2-(2-furyl)-N-[(3-methyl-2-pyridyl)methyl]pyrimidine-5-carboxamide] are 0.00062 µM, 0.49 µM, 0.073 µM and 0.059 µM.
With `Nc1nc(-c2cccc(F)c2)ncc1C(=O)NCc1ccc(F)cc1` [Example 10.4, 4-Amino-2-(3-fluorophenyl)-N-[(4-fluorophenyl)methyl]pyrimidine-5-carboxamide], the Ki in experiment [1] (Table 8, Cheng and Prusoff) was determined as 0.959 µM; in experiment [1] (Table 9, further testing), 0.959 µM; in experiment [2] it was 6.06 µM; in experiment [3] (setting [5]), 1.82 µM; in experiment [4], 3.8 µM.
Regarding `Cc1cccc(CNC(=O)c2cnc(-c3ccco3)nc2N)n1` [Example 5.32, 4-Amino-2-(2-furyl)-N-[(6-methyl-2-pyridyl)methyl]pyrimidine-5-carboxamide], the Ki came to 0.0033 µM in experiment [1] (Table 9, further testing); 0.437 µM in experiment [2]; 1.41 µM in experiment [3] (setting [5]); 1.89 µM in experiment [4].
Consider `CCOC(=O)c1nnc(-c2ccco2)nc1N` [Example 1, Ethyl 5-amino-3-(2-furyl)-1,2,4-triazine-6-carboxylate], for which the Ki came out at 0.06 µM in experiment [1] (Table 8, Cheng and Prusoff); 0.061 µM in experiment [1] (Table 9, further testing); 0.382 µM in experiment [2]; 0.101 µM in experiment [3] (setting [5]); 0.314 µM in experiment [4].
As to `Nc1nc(-c2ccco2)ncc1C(=O)NCc1ccccc1Cl` [Example 5.15, 4-Amino-N-[(2-chlorophenyl)methyl]-2-(2-furyl)pyrimidine-5-carboxamide], the Ki in experiment [1] (Table 8, Cheng and Prusoff) came to 0.0051 µM; in experiment [1] (Table 9, further testing), 0.0051 µM; in experiment [2], 1.21 µM; in experiment [3] (setting [5]) it was 2.17 µM; in experiment [4], 3.99 µM.
On to `Nc1nc(-c2ccco2)ncc1C(=O)NCc1cccc2c1OCO2` [Example 5.52, 4-Amino-N-(1,3-benzodioxol-4-ylmethyl)-2-(2-furyl)pyrimidine-5-carboxamide], for which the Ki was found to be 0.011 µM in experiment [1] (Table 9, further testing); 5.13 µM in experiment [2]; 3.09 µM in experiment [3] (setting [5]); 4.79 µM in experiment [4].
Consider `Cc1cccnc1CNC(=O)c1c(N)nc(-c2ccco2)nc1OCCCO` [Example 20.8, 4-Amino-2-(2-furyl)-6-(3-hydroxypropoxy)-N-[(3-methyl-2-pyridyl)methyl]pyrimidine-5-carboxamide], for which the Ki in experiment [1] (Table 9, further testing) was 0.000199 µM; in experiment [2], 0.165 µM; in experiment [3] (setting [5]), 0.024 µM; in experiment [4], 0.0075 µM.
For `COc1cc(CNC(=O)c2cnc(-c3cccc(F)c3)nc2N)cc(OC)c1` [Example 10.9, 4-Amino-N-[(3,5-dimethoxyphenyl)methyl]-2-(3-fluorophenyl)pyrimidine-5-carboxamide], the Ki in experiment [1] (Table 8, Cheng and Prusoff) is 0.661 µM; in experiment [1] (Table 9, further testing), 0.661 µM; in experiment [2] it was 1.17 µM; in experiment [3] it was 1.16 µM; in experiment [4], 0.811 µM.
Consider `Nc1nc(-c2cccc(F)c2)ncc1C(=O)NCc1ncccc1Cl` [Example 10.12, 4-Amino-N-[(3-chloro-2-pyridyl)methyl]-2-(3-fluorophenyl)pyrimidine-5-carboxamide], for which the Ki in experiment [1] (Table 8, Cheng and Prusoff) was determined as 0.036 µM; in experiment [1] (Table 9, further testing) it was 0.036 µM; in experiment [2], 0.536 µM; in experiment [3] (setting [5]), 0.371 µM; in experiment [4], 0.4 µM.
`CCn1ccnc1CNC(=O)c1cnc(-c2ccco2)nc1N` [Example 5.26, 4-Amino-N-[(1-ethylimidazol-2-yl)methyl]-2-(2-furyl)pyrimidine-5-carboxamide]: the Ki in experiment [1] (Table 8, Cheng and Prusoff) turned out to be 0.024 µM; in experiment [1] (Table 9, further testing), 0.024 µM; in experiment [2] it was 4.69 µM; in experiment [3] (setting [5]), 6.03 µM; in experiment [4], 4.86 µM.
Consider `Nc1nc(-c2cccc(F)c2)ncc1C(=O)NCc1cccc(Cl)c1` [Example 10.2, 4-Amino-N-[(3-chlorophenyl)methyl]-2-(3-fluorophenyl)pyrimidine-5-carboxamide], for which the Ki is 0.194 µM in experiment [1] (Table 8, Cheng and Prusoff); 0.194 µM in experiment [1] (Table 9, further testing); 1.48 µM in experiment [2]; 0.582 µM in experiment [3] (setting [5]); 0.28 µM in experiment [4].
For `Cc1cccnc1CNC(=O)c1c(N)nc(-c2ccco2)nc1OCC(F)(F)F` [Example 20.2, 4-Amino-2-(2-furyl)-N-[(3-methyl-2-pyridyl)methyl]-6-(2,2,2-trifluoroethoxy)pyrimidine-5-carboxamide], the Ki stood at 0.00021 µM in experiment [1] (Table 9, further testing); 0.037 µM in experiment [2]; 0.0099 µM in experiment [3] (setting [5]); 0.004 µM in experiment [4].
For `Nc1nc(-c2cccc(F)c2)ncc1C(=O)NCc1cccc(C(F)(F)F)c1` [Example 10.11, 4-Amino-2-(3-fluorophenyl)-N-[[3-(trifluoromethyl)phenyl]methyl]pyrimidine-5-carboxamide], the Ki in experiment [1] (Table 8, Cheng and Prusoff) worked out at 0.976 µM; in experiment [1] (Table 9, further testing), 0.976 µM; in experiment [2], 3.19 µM; in experiment [3] (setting [5]) it was 1.85 µM; in experiment [4], 0.632 µM.
